How the values were obtained:
Type in all cases: in vivo
[1] = test system: Heliothis virescens (Tobacco Budworm); experiment: Heliothis virescens egg test on artificial diet; settings: same protocol, 200 ppm (18 ppm in well), 4 days
Description: (§1) This Example illustrates the pesticidal/insecticidal properties of compounds of formula (I). The tests were performed as follows:
(§2) Cotton leaf discs were placed on agar in a 24-well microtiter plate and sprayed with test solutions at an application rate of 200 ppm. After drying, the leaf discs were infested with 5 L1 larvae. The samples were checked for mortality, feeding behavior, and growth regulation 3 days after treatment (DAT). The following compounds gave at least 80% control of Spodoptera littoralis: A2, A6, A8, A9, A10, A11, A13, A15, A19, A20, A22, A25, A27, A29, A31, A33, A35, A41, A50, A55, A60, A65, A73, A88, A92, and A94. Heliothis virescens (Tobacco Budworm): Eggs (0-24 h old) were placed in 24-well microtiter plate on artificial diet and treated with test solutions at an application rate of 200 ppm (concentration in well 18 ppm) by pipetting. After an incubation period of 4 days, samples were checked for egg mortality, larval mortality and growth regulation. The following compounds gave at least 80% control of Heliothis virescens: A2, A3, A4, A5, A6, A7, A9, A10, A11, A13, A15, A19, A20, A22, A25, A26, A27, A28, A29, A31, A32, A33, A35, A38, A40, A41, A43, A46, A55, A59, A60, A65, A69, A70, A71, A73, A74, A75, A77, A79, A80, A82, A86, A88, A89, A90, A92, A94, A96, A98, and A100. Plutella xylostella (Diamond Back Moth): A 24-well microtiter plate (MTP) with artificial diet was treated with test solutions at an application rate of 200 ppm (concentration in well 18 ppm) by pipetting. After drying, the MTP's were infested with L2 larvae (7-12 per well). After an incubation period of 6 days, samples were checked for larval mortality and growth regulation. The following compounds gave at least 80% control of Plutella xylostella: A3, A4, A5, A6, A7, A8, A10, A15, A16, A18, A19, A20, A22, A25, A26, A27, A28, A29, A31, A32, A33, A35, A38, A40, A55, A69, A71, A73, A74, A75, A76, A77, A78, A80, A82, A86, A87, A88, A89, A92, A94, A96, A97, A98, and A99. Diabrotica balteata (Corn Root Worm): A 24-well microtiter plate (MTP) with artificial diet was treated with test solutions at an application rate of 200 ppm (concentration in well 18 ppm) by pipetting. After drying, the MTP's were infested with larvae (L2) (6-10 per well). After an incubation period of 5 days, samples were checked for larval mortality, and growth regulation. The following compounds gave at least 80% control of Diabrotica balteata: A5, A6, A7, A14, A15, A18, A24, A35, A53, A55, A70, A71, A75, A79, A84, A85, A88, A92, A93, A95, A96, A97, A98, A99, A100, A101, A102, A103, and A104. Myzus persicae (Green Peach Aphid): Each well of a 24-well microtiter plate is filled with 0.6 ml 30% sucrose solution, containing 12.5 ppm of the test compounds. The wells are covered with streched parafilm and infested with a mixed population of Myzus persicae. After an incubation period of 6 days, samples are checked for mortality (feeding activity). The following compounds gave at least 80% control of Myzus persicae: A4, A6, A10, A11, A15, A19, A20, A24, A27, A29, A33, A34, A36, A37, A39, A40, A41, A42, A43, A44, A45, A46, A47, A48, A49, A55, A60, and A82. Tetranychus urticae (Two-Spotted Spider Mite): Bean leaf discs on agar in 24-well microtiter plates were sprayed with test solutions at an application rate of 200 ppm. After drying, the leaf discs are infested with mite populations of mixed ages. 8 days later, discs are checked for egg mortality, larval mortality, and adult mortality. The following compounds gave at least 80% control of Tetranychus urticae: A6, A11, A15, A19, A20, A22, A26, A35, A58, and A64.

[2] = test system: Myzus persicae (Green Peach Aphid); experiment: Myzus persicae sucrose solution feeding test; settings: same protocol, 12.5 ppm, 6 days
Description: as §1, §2

[3] = test system: Spodoptera littoralis (Egyptian Cotton Leafworm); experiment: Spodoptera littoralis cotton leaf disc spray test; settings: same protocol, 200 ppm, 3 DAT
Description: as §1
Spodoptera littoralis (Egyptian Cotton Leafworm)
as §2

[4] = test system: Plutella xylostella (Diamond Back Moth); experiment: Plutella xylostella larvae test on artificial diet; settings: same protocol, 200 ppm (18 ppm in well), 6 days
Description: as §1, §2

[5] = test system: Tetranychus urticae (Two-Spotted Spider Mite); experiment: Tetranychus urticae bean leaf disc spray test; settings: same protocol, 200 ppm, 8 days
Description: as §1, §2

[6] = test system: Diabrotica balteata (Corn Root Worm); experiment: Diabrotica balteata larvae test on artificial diet; settings: same protocol, 200 ppm (18 ppm in well), 5 days
Description: as §1, §2

Measured: effect on mortality, feeding behavior, or growth regulation

CCc1cc(C(F)(C(F)(F)F)C(F)(F)C(F)(F)F)cc(C)c1NC(=O)c1ccc(C(=O)Nc2ncccc2C)c(C)c1 (stereo not drawn) [A57]
no or little effect: all assays above

CCc1cc(C(F)(C(F)(F)F)C(F)(F)C(F)(F)F)cc(C)c1NC(=O)c1ccc(C(=O)NC2CCCCC2C)c(C)c1 (stereo not drawn) [A21]
no or little effect: all assays above

CCc1cc(C(F)(C(F)(F)F)C(F)(F)C(F)(F)F)cc(C)c1NC(=O)c1ccc(C(=O)NCc2ccc(C(C)(C)C)cc2)c(C)c1 (stereo not drawn) [A81]
no or little effect: all assays above

CCCCNC(=O)c1ccc(C(=O)Nc2c(C)cc(C(F)(C(F)(F)F)C(F)(F)F)cc2C)cc1C [A1, N-1-butyl-N-4-[2,6-dimethyl-4-(1,2,2,2-tetrafluoro-1-trifluoro-methyl-ethyl)-phenyl]-2-methyl-terephthalamide]
no or little effect: all assays above

CCc1cc(C(F)(C(F)(F)F)C(F)(F)C(F)(F)F)cc(C)c1NC(=O)c1ccc(C(=O)Nc2nnc(C)s2)c(C)c1 (stereo not drawn) [A63]
no or little effect: all assays above

CCc1cc(C(F)(C(F)(F)F)C(F)(F)C(F)(F)F)cc(C)c1NC(=O)c1ccc(C(=O)Nc2n[nH]c(SC)n2)c(C)c1 (stereo not drawn) [A56]
no or little effect: all assays above

CCc1cc(C(F)(C(F)(F)F)C(F)(F)C(F)(F)F)cc(C)c1NC(=O)c1ccc(C(=O)NCc2ccc(C)c(C)c2)c(C)c1 (stereo not drawn) [A91]
no or little effect: all assays above

CCc1cc(C(F)(C(F)(F)F)C(F)(F)C(F)(F)F)cc(C)c1NC(=O)c1ccc(C(=O)Nc2ccccc2N2CCOCC2)c(C)c1 (stereo not drawn) [A52]
no or little effect: all assays above

CCc1cc(C(F)(C(F)(F)F)C(F)(F)C(F)(F)F)cc(C)c1NC(=O)c1ccc(C(=O)NCc2ccccc2OC(F)(F)F)c(C)c1 (stereo not drawn) [A30]
no or little effect: all assays above

CCc1cc(C(F)(C(F)(F)F)C(F)(F)C(F)(F)F)cc(C)c1NC(=O)c1ccc(C(=O)NC2CC(C)(C)N(C)C(C)(C)C2)c(C)c1 (stereo not drawn) [A72]
no or little effect: all assays above

CCc1cc(C(F)(C(F)(F)F)C(F)(F)C(F)(F)F)cc(C)c1NC(=O)c1ccc(C(=O)NCc2cc(-c3ccc(Cl)cc3)no2)c(C)c1 (stereo not drawn) [A68]
no or little effect: all assays above

CCc1cc(C(F)(C(F)(F)F)C(F)(F)C(F)(F)F)cc(C)c1NC(=O)c1ccc(C(=O)Nc2cc(C)nn2C)c(C)c1 (stereo not drawn) [A54]
no or little effect: all assays above

Source: patent US8658698B2, “Insecticidal compounds” (Syngenta Crop Protection, LLC, priority 2008, dated 2014)
